# Experimental data taken from paper PMC4097383 (Drug and alcohol dependence, 2013).
# T1: human cardiac calsequestrin (CASQ2) (Homo sapiens, UniProt O14958)
# T1 sequence (O14958 20-399): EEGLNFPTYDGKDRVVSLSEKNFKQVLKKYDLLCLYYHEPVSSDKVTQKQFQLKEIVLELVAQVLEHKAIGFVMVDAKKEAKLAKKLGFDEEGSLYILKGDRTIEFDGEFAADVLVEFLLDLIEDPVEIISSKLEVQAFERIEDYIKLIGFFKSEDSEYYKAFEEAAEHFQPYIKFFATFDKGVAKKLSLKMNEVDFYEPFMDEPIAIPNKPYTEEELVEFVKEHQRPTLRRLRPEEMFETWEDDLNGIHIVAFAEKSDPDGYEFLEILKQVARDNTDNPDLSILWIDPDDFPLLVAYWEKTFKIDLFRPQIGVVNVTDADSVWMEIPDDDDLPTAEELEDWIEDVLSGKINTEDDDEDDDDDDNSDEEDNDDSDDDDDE
# B1: human cardiac calsequestrin (CASQ2) (natural protein)
# chain: GLNFPTYDGKDRVVSLSEKNFKQVLKKYDLLCLYYHEPVSSDKVTQKQFQLKEIVLELVAQVLEHKAIGFVMVDAKKEAKLAKKLGFDEEGSLYILKGDRTIEFDGEFAADVLVEFLLDLIEDPVEIISSKLEVQAFERIEDYIKLIGFFKSEDSEYYKAFEEAAEHFQPYIKFFATFDKGVAKKLSLKMNEVDFYEPFMDEPIAIPNKPYTEEELVEFVKEHQRPTLRRLRPEEMFETWEDDLNGIHIVAFAEKSDPDGYEFLEILKQVARDNTDNPDLSILWIDPDDFPLLVAYWEKTFKIDLFRPQIGVVNVTDADSVWMEIPDDDDLPTAEELEDWIEDVLSGKINTEDDDEDDDDDDNSDEEDNDDSDDDDDE
# Legend:
# [1] = target: T1, human cardiac calsequestrin (CASQ2); assay: isothermal titration calorimetry; format: binding
# [2] = target: T1, human cardiac calsequestrin (CASQ2); assay: equilibrium dialysis and atomic absorption spectroscopy; format: biochemical; settings: 350 μM cocaine, 1 mg/mL CASQ2, 1 h preincubation
# SEC-MALS = target: the molecule itself; assay: SEC-MALS
Molecule,Kd [1] [µM],% reduction in Ca2+ binding capacity at 350 μM [2],stoichiometry N (SEC-MALS)
COC(=O)[C@H]1[C@@H](OC(=O)c2ccccc2)C[C@@H]2CC[C@H]1N2C [cocaine],63.5 ± 2.7,~ 50%,–
B1,–,–,2
